From ChEMBL document CHEMBL1135140, “Pyridazines. Part 28: 5-alkylidene-6-phenyl-3(2H)-pyridazinones, a new family of platelet aggregation inhibitors” (Bioorg Med Chem Lett, 2002) come the findings set out here.

SMILES strings stand for the structures.

The nature of the assay: Tested for anti-platelet activity by turbidimetric method using thrombin as agonist in washed platelet. It counts as functional.

In the case of `Clc1ccccc1CN1CCc2sccc2C1` [TICLOPIDINE], the IC50 – broadly, the concentration needed to halve the response being measured – was found to be 1550 µM.

In turn, `CCOC(=O)C(=Cc1cc(=O)[nH]nc1-c1ccccc1)C(=O)OCC` registered an IC50 of 20 µM.

Regarding `COC(=O)C(=Cc1cc(=O)[nH]nc1-c1ccccc1)C(=O)OC`, the IC50 stood at 45 µM.

Consider `COC(=O)/C(=C/c1cc(O)nnc1-c1ccccc1)C(C)=O`, for which the IC50 was determined as 25 µM.

The compound `O=C1C(CC[S+]([O-])c2ccccc2)C(=O)N(c2ccccc2)N1c1ccccc1` (stereo not given) [SULFINPYRAZONE] came in with an IC50 of 696 µM.
